Values of other authors, collected in US8802735B2, “(Z)-2-cyano-3-hydroxy-but-2-enoic acid-(4'-trifluormethylphenyl)-amide tablet formulations with improved stability” (Sanofi, priority 2009, dated 2014).

Molecular target: dihydroorotate dehydrogenase (Homo sapiens, UniProt Q02127)
Conditions: Bruneau J-M, et al., Biochem. J. 1998

dihydroorotate dehydrogenase, sequence (Q02127 whole entry): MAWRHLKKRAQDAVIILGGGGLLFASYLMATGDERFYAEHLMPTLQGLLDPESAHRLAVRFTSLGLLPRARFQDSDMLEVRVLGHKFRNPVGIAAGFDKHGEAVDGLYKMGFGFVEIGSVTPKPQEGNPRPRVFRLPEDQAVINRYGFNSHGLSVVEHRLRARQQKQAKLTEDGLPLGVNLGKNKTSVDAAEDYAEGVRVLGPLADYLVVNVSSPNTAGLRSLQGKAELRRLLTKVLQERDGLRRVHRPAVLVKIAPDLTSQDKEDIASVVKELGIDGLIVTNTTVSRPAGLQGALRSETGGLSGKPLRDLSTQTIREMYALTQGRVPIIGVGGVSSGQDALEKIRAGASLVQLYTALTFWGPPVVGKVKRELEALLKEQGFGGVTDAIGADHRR

C/C(O)=C(\C#N)C(=O)Nc1ccc(C(F)(F)F)cc1 [Teriflunomide, (Z)-2-cyano-3-hydroxy-but-2-enoic acid-(4′-trifluoromethylphenyl)-amide]
inhibition of the enzyme dihydroorotate dehydrogenase: inhibits
